Results from PubChem BioAssay AID330 (DTP/NCI, 2004).
Where “and” joins values, the source holds several entries; their conditions need not be identical. Equal values may be shown once. Inconclusive results and toxic doses are left out. Rule for the calls: active = survival T/C of 150% or more; inactive = T/C below 125% in these data.

Tested on: P388 leukemia ip, CD2F1 mice, survival T/C
Experiment: NCI In Vivo Anticancer Drug Screen. Data for tumor model P388 Leukemia (intraperitoneal) in CD2F1 (CDF1) mice
Conditions: endpoint: median survival time, higher = longer survival
Summary of the method: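 Mice carrying the transplanted tumor received test compound or vehicle. Survival was recorded in each group, and the value is the treated-group measurement divided by that of the vehicle-treated control group.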

[1] = dose: 50.0 mg/kg/injection, schedule: Q01DX005 (ip), vehicle: Klucel (hydroxypropylcellulose) (HPC)
[2] = dose: 100.0 mg/kg/injection, schedule: Q01DX005 (ip), vehicle: Klucel (hydroxypropylcellulose) (HPC)
[3] = dose: 15.0 mg/kg/injection, schedule: Q01DX005 (ip), vehicle: saline with Tween-80
[4] = dose: 30.0 mg/kg/injection, schedule: Q01DX005 (ip), vehicle: saline with Tween-80
[5] = dose: 60.0 mg/kg/injection, schedule: Q01DX005 (ip), vehicle: saline with Tween-80
[6] = dose: 100.0 mg/kg/injection, schedule: Q04DX002 (ip), vehicle: saline with Tween-80
[7] = dose: 200.0 mg/kg/injection, schedule: Q04DX002 (ip), vehicle: saline with Tween-80
[8] = dose: 100.0 mg/kg/injection, schedule: Q01DX009 (ip), vehicle: saline with Tween-80
[9] = dose: 200.0 mg/kg/injection, schedule: Q01DX009 (ip), vehicle: saline with Tween-80

Measured: T/C

O=C1NCCN1C(=O)Nc1ccc(Cl)c(Cl)c1
inactive: dose: 50.0 mg/kg/injection, schedule: Q01DX009 (ip), vehicle: Klucel (hydroxypropylcellulose) (HPC) 116 % of control | dose: 100.0 mg/kg/injection, schedule: Q01DX009 (ip), vehicle: Klucel (hydroxypropylcellulose) (HPC) 108 % of control | dose: 200.0 mg/kg/injection, schedule: Q01DX009 (ip), vehicle: Klucel (hydroxypropylcellulose) (HPC) 110 % of control

N#Cc1c(-c2ccccc2)nc2sccn12
inactive: dose: 100.0 mg/kg/injection, schedule: Q01DX001 (ip), vehicle: Klucel (hydroxypropylcellulose) (HPC) 88 % of control | dose: 400.0 mg/kg/injection, schedule: Q01DX001 (ip), vehicle: Klucel (hydroxypropylcellulose) (HPC) 91 % of control

CCN(CC)c1nc(Cl)nc(Nc2ccc3cc(-c4ccccc4)c(=O)oc3c2)n1
inactive: [1] 98 % of control | [2] 95 % of control | dose: 200.0 mg/kg/injection, schedule: Q01DX005 (ip), vehicle: Klucel (hydroxypropylcellulose) (HPC) 104 % of control

CCOP(OCC)SSCn1nc2ccc3ccccc3n2c1=O
inactive: [3] 98 % of control | [4] 97 % of control | [5] 103 % of control

O=S1(=O)c2ccccc2N(c2ccccc2)c2nnc(-c3ccccc3)n21
inactive: [6] 93 % of control | [7] 92 % of control | dose: 400.0 mg/kg/injection, schedule: Q04DX002 (ip), vehicle: saline with Tween-80 92 % of control

CSc1ncnc2c1ncn2C1OC(CO)C(O)C1O (centres undefined)
inactive: dose: 2.0 mg/kg/injection, schedule: Q01DX010 (ip), vehicle: saline 107 % of control | dose: 4.0 mg/kg/injection, schedule: Q01DX010 (ip), vehicle: saline 102 % of control and 104 % of control | dose: 8.0 mg/kg/injection, schedule: Q01DX010 (ip), vehicle: saline 100 % of control and 116 % of control | dose: 16.0 mg/kg/injection, schedule: Q01DX010 (ip), vehicle: saline 109 % of control and 120 % of control | dose: 25.0 mg/kg/injection, schedule: Q01DX009 (ip), vehicle: saline with Tween-80 95 % of control | dose: 50.0 mg/kg/injection, schedule: Q01DX009 (ip), vehicle: saline with Tween-80 93 % of control | dose: 54.0 mg/kg/injection, schedule: Q01DX001 (ip), vehicle: saline 111 % of control | dose: 82.0 mg/kg/injection, schedule: Q01DX001 (ip), vehicle: saline 117 % of control and 118 % of control | [8] 104 % of control | [9] 101 % of control

CCN(CC)CCOC(=O)Nc1c(Cl)cccc1Cl
inactive: dose: 25.0 mg/kg/injection, schedule: Q01DX005 (ip), vehicle: Klucel (hydroxypropylcellulose) (HPC) 100 % of control | [1] 107 % of control | dose: 60.0 mg/kg/injection, schedule: Q01DX005 (ip), vehicle: Klucel (hydroxypropylcellulose) (HPC) 100 % of control | [2] 100 % of control

CNC1C(O)C(NC)C2OC3(O)C(=O)CC(C)OC3OC2C1O (centres undefined)
inactive: dose: 50.0 mg/kg/injection, schedule: Q04DX002 (ip), vehicle: saline with Tween-80 101 % of control | dose: 100.0 mg/kg/injection, schedule: Q01DX005 (ip), vehicle: saline 101 % of control | [6] 101 % of control | dose: 200.0 mg/kg/injection, schedule: Q01DX005 (ip), vehicle: saline 100 % of control | [7] 98 % of control

CCOC(=O)c1cc(-c2ccc(Cl)cc2)nc2c(Cl)cc(Cl)cc12
inactive: [8] 93 % of control | [9] 94 % of control | dose: 400.0 mg/kg/injection, schedule: Q01DX009 (ip), vehicle: saline with Tween-80 88 % of control

CN(C)C[N+](C)(C)Cc1ccc(C[N+](C)(C)C[N+](C)(C)Cc2ccc(CCl)cc2)cc1
inactive: dose: 0.19 mg/kg/injection, schedule: Q04DX003 (ip), vehicle: saline 100 % of control | dose: 0.39 mg/kg/injection, schedule: Q04DX003 (ip), vehicle: saline 94 % of control | dose: 0.78 mg/kg/injection, schedule: Q04DX003 (ip), vehicle: saline 103 % of control and 88 % of control | dose: 1.56 mg/kg/injection, schedule: Q04DX003 (ip), vehicle: saline 88 % of control | dose: 3.12 mg/kg/injection, schedule: Q04DX003 (ip), vehicle: saline 99 % of control

CC(=O)Nc1ccc(S(=O)(=O)CC(N)=O)cc1
inactive: dose: 12.5 mg/kg/injection, schedule: Q01DX009 (ip), vehicle: saline 105 % of control | dose: 25.0 mg/kg/injection, schedule: Q01DX009 (ip), vehicle: saline 104 % of control | dose: 50.0 mg/kg/injection, schedule: Q01DX009 (ip), vehicle: saline 107 % of control | dose: 50.0 mg/kg/injection, schedule: Q01DX009 (ip), vehicle: suspension in saline 97 % of control

CC(C)C1CCC2(C)CCC3(C)CCC12O3 (centres undefined)
inactive: dose: 12.0 mg/kg/injection, schedule: Q01DX009 (ip), vehicle: Klucel (hydroxypropylcellulose) (HPC) 108 % of control | dose: 24.0 mg/kg/injection, schedule: Q01DX009 (ip), vehicle: Klucel (hydroxypropylcellulose) (HPC) 98 % of control | dose: 48.0 mg/kg/injection, schedule: Q01DX009 (ip), vehicle: Klucel (hydroxypropylcellulose) (HPC) 108 % of control | dose: 96.0 mg/kg/injection, schedule: Q01DX009 (ip), vehicle: Klucel (hydroxypropylcellulose) (HPC) 108 % of control

CC(=O)N1C=[N+](C)C(C)(C)C1
inactive: dose: 100.0 mg/kg/injection, schedule: Q04DX003 (ip), vehicle: saline 103 % of control | dose: 200.0 mg/kg/injection, schedule: Q04DX003 (ip), vehicle: saline 90 % of control

Cc1ccc(N2CCN(CC(O)COc3cc4c(c5c3CCCC5)CCCC4)CC2)cc1C (centres undefined)
inactive: dose: 100.0 mg/kg/injection, schedule: Q04DX003 (ip), vehicle: Klucel (hydroxypropylcellulose) (HPC) 95 % of control | dose: 200.0 mg/kg/injection, schedule: Q04DX003 (ip), vehicle: Klucel (hydroxypropylcellulose) (HPC) 93 % of control | dose: 400.0 mg/kg/injection, schedule: Q04DX003 (ip), vehicle: Klucel (hydroxypropylcellulose) (HPC) 91 % of control

CCC[CH2][Sn]([CH2]CCC)[S]CC(N)C(=O)O (centres undefined)
inactive: dose: 0.16 mg/kg/injection, schedule: Q01DX005 (ip), vehicle: Klucel (hydroxypropylcellulose) (HPC) 107 % of control | dose: 0.23 mg/kg/injection, schedule: Q01DX005 (ip), vehicle: Klucel (hydroxypropylcellulose) (HPC) 108 % of control | dose: 0.46 mg/kg/injection, schedule: Q01DX005 (ip), vehicle: Klucel (hydroxypropylcellulose) (HPC) 103 % of control and 104 % of control | dose: 0.93 mg/kg/injection, schedule: Q01DX005 (ip), vehicle: Klucel (hydroxypropylcellulose) (HPC) 117 % of control | dose: 3.75 mg/kg/injection, schedule: Q01DX005 (ip), vehicle: Klucel (hydroxypropylcellulose) (HPC) 108 % of control

COc1ccc2c(c1N)CC[C@@H]1C2CC[C@]2(C)C(O)CCC12 (some centres undefined)
inactive: dose: 50.0 mg/kg/injection, schedule: Q01DX005 (ip), vehicle: saline with Tween-80 104 % of control | dose: 100.0 mg/kg/injection, schedule: Q01DX005 (ip), vehicle: saline with Tween-80 96 % of control | dose: 200.0 mg/kg/injection, schedule: Q01DX005 (ip), vehicle: saline with Tween-80 91 % of control

Oc1ccccc1C1=CC=NCCN1
inactive: [3] 96 % of control | [4] 101 % of control | [5] 101 % of control

N/N=C1\c2ccccc2-c2cccc(O)c21
inactive: dose: 7.5 mg/kg/injection, schedule: Q01DX005 (ip), vehicle: saline with Tween-80 101 % of control | [3] 97 % of control | [4] 93 % of control

CC(=O)/C(C(=N)C(=O)c1ccccc1)=C(\C)O
inactive: [5] 96 % of control | dose: 120.0 mg/kg/injection, schedule: Q01DX005 (ip), vehicle: saline with Tween-80 98 % of control | dose: 240.0 mg/kg/injection, schedule: Q01DX005 (ip), vehicle: saline with Tween-80 99 % of control

COc1cc(C2c3cc4c(cc3C3OC(=O)C2C3CO)OCO4)cc(OC)c1OC (centres undefined)
inactive: dose: 0.12 mg/kg/injection, schedule: Q01DX009 (ip), vehicle: Klucel (hydroxypropylcellulose) (HPC) 117 % of control | dose: 0.25 mg/kg/injection, schedule: Q01DX009 (ip), vehicle: Klucel (hydroxypropylcellulose) (HPC) 115 % of control | dose: 0.5 mg/kg/injection, schedule: Q01DX009 (ip), vehicle: Klucel (hydroxypropylcellulose) (HPC) 120 % of control | dose: 3.12 mg/kg/injection, schedule: Q01DX009 (ip), vehicle: Klucel (hydroxypropylcellulose) (HPC) 118 % of control | dose: 6.25 mg/kg/injection, schedule: Q01DX009 (ip), vehicle: Klucel (hydroxypropylcellulose) (HPC) 118 % of control

CCO/C=C1/N=C(c2ccc3ccccc3c2)OC1=O
inactive: dose: 60.0 mg/kg/injection, schedule: Q01DX005 (ip), vehicle: saline + Tween-80 + alcohol 101 % of control | dose: 120.0 mg/kg/injection, schedule: Q01DX005 (ip), vehicle: saline + Tween-80 + alcohol 100 % of control | dose: 240.0 mg/kg/injection, schedule: Q01DX005 (ip), vehicle: saline + Tween-80 + alcohol 86 % of control
